Molecules are shown by their SMILES.

In the experiment the test system is MDA-MB-231 cells. The experiment can be described thus: ACPP uptake in 3D Matrigel culture, MDA-MB-231. It is filed as cell-based. The note with it: Homo sapiens, 0.1 mM GM6001, read-out: inhibition of uptake of PLGLAG-containing ACPP. How it is done:
FIG. 56: MDA-MB-231 cells in 3-D culture make enough MMPs to take up ACPP over 24 hr. The left two columns show results with e9-XPLGLAG-r9-k(Cy5) without or with 0.1 mM GM6001, a general inhibitor of MMPs. GM6001 also reduces invasiveness of the cells, explaining why the cell cluster is smaller. The right two columns show e9-Xplglag-r9-k(Cy5) as a nonhydrolyzable negative control and r9-k(Cy5) as a positive control. […] Note that these ACPPs have no macromolecular carrier, because there is no need to hinder kidney excretion and because the macromolecular carriers seem to hinder diffusion through the Matrigel and into these organoids, which lack active circulation.
3D tissue cultures in matrigel (FIG. 53) may also be used in the practice of this invention. Such 3D cultures are more realistic models than isolated tumor cells, and offer higher-resolution analysis than is possible in live animals. […]
For these studies, tricine gels, fluorescence imaging, and flow cytometry protocols were used to quantify cleavage and uptake of ACPPs into the 3D cultures. Fluorescence imaging allowed detection of total fluorescence of surface and intracellular peptide, whereas flow cytometry measured fluorescence remaining inside cells after clusters have been digested into single cells and stripped of surface binding via trypsinization. […]

What is called inhibition is the percentage by which the read-out fell short of the control. As for `CNC(=O)[C@H](Cc1c[nH]c2ccccc12)NC(=O)[C@@H](CC(=O)NO)CC(C)C` [GM6001], the inhibition at 100 µM is approximately 50%.
